Measured values reported in EP4722219A1 (Gan & Lee Pharmaceuticals Co., Ltd., priority 2023, dated 2024).
Positions count from the first letter of the chain named.

What was measured:
Format in all cases: cell-based
LNCaP cells = assay: Inhibition of LNCaP cell proliferation (WST-8); settings: Homo sapiens, LNCaP FGC cells, 96 hours
Procedure: The inhibitory activity of compounds disclosed in the present invention on LNCaP cell proliferation
The cells were cultured overnight in a 37°C, 5% CO2 cell incubator. […] The final concentration of the compound was 9 concentration points of 5-fold serial dilution starting from 10 µM. […] The cells were cultured in a cell culture incubator at 37°C and 5% CO2 for 96 hours. On the sixth day, the 96-well cell culture plate was removed, and 1/10 volume of WST-8 (Beytime, C0040) reagent was added to each well. The absorbance at 450 nm was detected using a microplate reader (TECAN, F50).

VCaP cells = assay: Inhibition of VCaP cell proliferation (WST-8); settings: Homo sapiens, 168 hours
Procedure: On the first day of the experiment, VCaP cells were seeded at a density of 15,000 cells/well in a 96-well plate using DMEM medium containing 10% fetal bovine serum, with 100µL of cell suspension per well, and cultured overnight in a cell incubator at 37°C and 5% CO2. On the second day, 100µL of the compound of the present invention and the positive control ARV-110 (source: Anaiji) prepared in culture medium at different concentrations were added to each well. The final concentration of the compound was 9 concentration points of 5-fold serial dilution starting from 10 µM. […] On the ninth day, the 96-well cell culture plate was removed and 1/10 volume of WST-8 (Beytime, C0040) reagent was added to each well. The absorbance at 450nm was measured using a microplate reader (TECAN, F50).

AR protein [1] = target: T1, AR protein (Homo sapiens, UniProt P10275, T878A); assay: AR protein degradation in LNCaP cells (Western blot); settings: 8 hours
T1 construct: host or cells: LNCaP FGC
T1 sequence (P10275 1-920 T878A): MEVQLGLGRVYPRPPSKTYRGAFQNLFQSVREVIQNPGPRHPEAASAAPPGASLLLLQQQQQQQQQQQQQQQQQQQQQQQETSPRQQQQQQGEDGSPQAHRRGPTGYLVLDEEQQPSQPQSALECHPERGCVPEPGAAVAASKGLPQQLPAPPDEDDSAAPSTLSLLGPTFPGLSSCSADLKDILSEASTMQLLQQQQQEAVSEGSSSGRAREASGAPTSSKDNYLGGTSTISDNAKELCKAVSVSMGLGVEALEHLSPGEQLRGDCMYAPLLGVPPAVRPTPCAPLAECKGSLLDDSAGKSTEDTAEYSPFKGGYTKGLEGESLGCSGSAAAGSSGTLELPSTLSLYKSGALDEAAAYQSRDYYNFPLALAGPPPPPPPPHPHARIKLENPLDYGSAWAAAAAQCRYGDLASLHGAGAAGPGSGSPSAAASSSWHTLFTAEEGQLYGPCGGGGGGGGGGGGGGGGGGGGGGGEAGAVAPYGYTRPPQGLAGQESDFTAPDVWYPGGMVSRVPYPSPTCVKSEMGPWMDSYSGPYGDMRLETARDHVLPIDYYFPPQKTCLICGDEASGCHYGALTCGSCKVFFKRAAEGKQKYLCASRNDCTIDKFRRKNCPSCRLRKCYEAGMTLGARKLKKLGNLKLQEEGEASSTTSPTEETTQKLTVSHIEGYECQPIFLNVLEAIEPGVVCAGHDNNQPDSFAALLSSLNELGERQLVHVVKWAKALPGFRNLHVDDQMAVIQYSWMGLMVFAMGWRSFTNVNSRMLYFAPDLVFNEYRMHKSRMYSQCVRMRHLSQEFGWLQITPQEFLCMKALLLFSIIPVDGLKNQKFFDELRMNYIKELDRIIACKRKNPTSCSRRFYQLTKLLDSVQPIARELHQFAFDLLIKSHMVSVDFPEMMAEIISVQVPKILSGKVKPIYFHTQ
Procedure: At the same time, the corresponding solvent control was set and cultured for 8 hours. After 8 hours of culture, the culture medium was removed, the cells were washed with PBS, and RIPA lysis buffer containing 1% Protease Inhibitor Cocktail was added. After lysis and centrifugation, the total protein extract was obtained, and the protein concentration in the extract was detected by BCA method. Protein electrophoresis was performed using SDS-PAGE, and then the protein was transferred to a PVDF (Millipore Sigma catalog number PSRP010R5) membrane at a constant voltage of 100V for 60 minutes. The PVDF membrane was placed in a 5% milk powder 1 ×TBST solution and blocked at room temperature for 1 hour. […] The primary antibody solution was discarded and the PVDF membrane was washed with 1×TBST for 5 minutes each time, for three times. […] The secondary antibody solution was discarded and the PVDF membrane was washed with 1 ×TBST for 5 minutes each time, for three times. A dual-color infrared laser imaging system (Licor catalog number Odyssey CLX) was used for Western membrane imaging. The Image Studio software was used to analyze the grayscale of the bands. GAPDH protein bands were also detected for each sample as the reference. The AR protein degradation rate of the compound and the positive control sample was calculated based on the grayscale of the protein bands.

AR protein [2] = target: T2, AR protein (Homo sapiens, UniProt P10275); assay: AR protein degradation in VCaP cells (Western blot); settings: 8h
T2 construct: host or cells: VCaP
T2 sequence (P10275 1-920): T1 sequence (P10275 1-920 T878A) with A878T
Procedure: The degradation activity of the compounds disclosed in the present invention on AR protein in VCaP cells (cell source: ATCC)
The AR-positive human prostate cancer cells VCaP cultured in DMEM (GiBco catalog number 11995-065) containing 10% FBS (Hyclone catalog number SH30406.05) was inoculated in a six-well microplate (Thermo catalog number 140675) at a concentration of 3×10^5 cells/ well. After being cultured overnight in a carbon dioxide incubator (ESCO), the prepared compound of the present invention and the positive control sample ARV-766 (Annaiji) solution of different concentrations were added at a volume of 1 µL/well to make the final concentrations of the compound and the positive control sample reach 5nM and 0.5nM, respectively. At the same time, the corresponding solvent control was set and cultured for 8h. After 8h of culture, the culture medium was removed, and the cells were washed with PBS. RIPA lysis buffer containing 1% Protease Inhibitor Cocktail was added. After lysis and centrifugation, a total protein extract was obtained, and the protein concentration in the extract was detected by BCA method. Protein electrophoresis was performed using SDS-PAGE, and then the protein was transferred to a PVDF (Millipore Sigma catalog number PSRP010R5) membrane at a constant voltage of 100V for 60min. The PVDF membrane was placed in a 5% milk powder 1×TBST solution and blocked at room temperature for 1h. The primary antibody solution (Anti-Androgen receptor, Cell Signaling Technology catalog number: 5153S; 1:2000 dilution) was prepared and was incubated at 4°C overnight. The primary antibody solution was discarded and the PVDF membrane was washed with 1×TBST for 5 minutes each time, for three times. The secondary antibody solution (Thermo catalog number SA5-35571; 1:7500 dilution) was prepared and was incubated at room temperature for 1 hour. The secondary antibody solution was discarded and the PVDF membrane was washed with 1×TBST for 5 minutes each time, for three times. A dual-color infrared laser imaging system (Licor catalog number Odyssey CLX) was used for Western membrane imaging. Image Studio software was used to analyze the grayscale of the bands. GAPDH protein bands were also detected for each sample as the reference. The AR protein degradation rate of the compound and the positive control sample was calculated based on the grayscale of the protein bands.
Table 7 Degradation rate of AR protein in VCaP cells by the compounds disclosed in the present invention

SMILES	IC50 (LNCaP cells) [µM]	IC50 (VCaP cells) [µM]	further results
COc1cc2c(cc1C(=O)N[C@H]1CCC(=O)NC1=O)CCC1(CCN(CC3CCN(c4ccc(N5CCC6(CC5)C[C@H](C)N(c5ccc(C#N)c(Cl)c5)C6)cc4)CC3)CC1)O2 [A-P-54]	0.91	0.007	Degradation of AR protein in LNCaP cells, 10 nM (%) (AR protein [1]; 10 nM): 40%; Degradation of AR protein in LNCaP cells, 100 nM (%) (AR protein [1]; 100 nM): 74%
C[C@H]1CC2(CCN(c3ccc(C(=O)N4CCC(CN5CCC6(CC5)Cc5ccc(NC7CCC(=O)NC7=O)cc5O6)CC4)cc3)CC2)CN1c1ccc(C#N)c(Cl)c1 (stereo partly drawn) [A-P-94, 2-chloro-4-((3S)-8-(4-(4-((6-((2,6-dioxopiperidin-3-yl)amino)-3H-spiro[benzofuran-2,4'-piperidin]-1'-yl)methyl)piperidin-1-carbonyl)phenyl)-3-methyl-2,8-diazaspiro[4.5]decan-2-yl)benzonitrile]	0.39	0.0015	–
COc1cc2c(cc1C(=O)N[C@H]1CCC(=O)NC1=O)OC[C@H]1CN(CC3CCN(C(=O)c4ccc(N5CCC6(CC5)C[C@H](C)N(c5ccc(C#N)c(Cl)c5)C6)cc4)CC3)CCN21 [A-P-76]	2.84	0.078	–
C[C@H]1CC2(CCN(c3ccc(C(=O)N4CCC(CN5CCC6(CC5)COc5cc(NC7CCC(=O)NC7=O)ccc56)CC4)cc3)CC2)CN1c1ccc(C#N)c(Cl)c1 (some centres unmarked) [A-P-87, 2-chloro-4-((3 S)-8-(4-(4-((6-((2,6-dioxopiperidin-3-yl)amino)-2H-spiro[benzofuran-3,4'-piperidin]-1'-yl)methyl)piperidin-1-carbonyl)phenyl)-3-methyl-2,8-diazaspiro[4.5]decan-2-yl)benzonitrile]	0.14	0.0014	–
C[C@H]1CC2(CCN(c3ccc(C(=O)N4CCC(CN5CCC6(CC5)COc5ccc(NC7CCC(=O)NC7=O)cc56)CC4)cc3)CC2)CN1c1ccc(C#N)c(Cl)c1 (some centres unmarked) [A-P-98, 2-chloro-4-((3 S)-8-(4-(4-((5-((2,6-dioxopiperidin-3-yl)amino)-2H-spiro[benzofuran-3,4'-piperidin]-1'-yl)methyl)piperidin-1-carbonyl)phenyl)-3-methyl-2,8-diazaspiro[4.5]decan-2-yl)benzonitrile]	0.43	0.006	–
C[C@H]1CC2(CCN(c3ccc(C(=O)N4CCC(CN5CCN6c7cc(F)c(C(=O)N[C@H]8CCC(=O)NC8=O)cc7OC[C@H]6C5)CC4)cc3)CC2)CN1c1ccc(C#N)c(Cl)c1 [A-P-60]	0.69	0.94	–
COc1cc2c(cc1C(=O)N[C@H]1CCC(=O)NC1=O)OC[C@H]1CN(CC3CCN(c4ccc(N5CCC6(CC5)C[C@H](C)N(c5ccc(C#N)c(Cl)c5)C6)cc4)CC3)CCN21 [A-P-75]	0.35	0.042	–
COc1cc(O[C@H]2C(C)(C)[C@H](NC(=O)c3ccc(N4CCC(CN5CCC6(CC5)COc5c6ccc6c5n(C)c(=O)n6C5CCC(=O)NC5=O)CC4)cc3)C2(C)C)ccc1C#N (some centres unmarked) [A-P-28]	20.7	–	AR protein degradation rate at fixed concentration (%) at 0.0005 µM (AR protein [2]; 0.5 nM): 80%; AR protein degradation rate at fixed concentration (%) at 0.005 µM (AR protein [2]; 5 nM): 80%; percent AR protein degradation at a fixed concentration at 0.01 µM (AR protein [1]; 10 nM): 64%; percent AR protein degradation at a fixed concentration at 0.1 µM (AR protein [1]; 100 nM): 32%
C[C@H]1CC2(CCN(c3ccc(N4CCC(CN5CCN6c7cc(F)c(C(=O)N[C@H]8CCC(=O)NC8=O)cc7OC[C@H]6C5)CC4)cc3)CC2)CN1c1ccc(C#N)c(Cl)c1 [A-P-59, (R)-3-((1-(4-((S)-2-(3-chloro-4-cyanophenyl)-3-methyl-2,8-diazaspiro[4.5]decan-8-yl)phenyl)piperidin-4-yl)methyl)-N-((S)-2,6-dioxopiperidin-3-yl)-9-fluoro-1,2,3,4,4a,5-hexahydrobenzo[b]pyrazi no[1,2-d][1,4]oxazine-8-carboxamide]	0.15	0.16	–
